Data taken from paper PMC11326411, “PET imaging of [52 Mn]Mn-DOTATATE and [52 Mn]Mn-DOTA-JR11” (Research Square, 2024).
Where a SMILES comes first, the peptide text is derived from it. Bridges are numbered along the chain shown (N, C = ends). [ ]: non-standard residue; d: D form. The star is where a group is joined. DOTA = O=C(O)CN1CCN(CC(=O)O)CCN(CC(=O)*)CCN(CC(=O)O)CC1; dPhe(4-NHCONH2) = NC(=O)Nc1ccc(C[C@@H](N)C(=O)O)cc1; Dihydroorotyl(S) = O=C1C[C@@H](C(=O)*)NC(=O)N1; Phe(4-Cl) = N[C@@H](Cc1ccc(Cl)cc1)C(=O)O; Phe(4-NH2) = Nc1ccc(C[C@H](N)C(=O)O)cc1

Tests used:
SSTR2 + AR42J cells = experiment: Cell uptake in AR42J cells; type: cell-based, rat
Protocol: (§1) 1×10^5 AR42J, A549, and MCF-7 cells were seeded onto 24-well plates (n = 6) and incubated at 37°C 48 h before study. […] The cells were incubated at 37°C under 5% CO2 for 2 h. Following incubation, the media was removed, and the cells were washed 3 times with ice-cold PBS. 500 μL of 0.2 M NaOH was added to detach the cells before collection into microcentrifugetubes followed by a 500 μL wash of PBS. Associated radioactivity was counted on a HIDEX (Turku, Finland) AGM gamma counter.
(§2) To normalize the counts to the total protein amount, a BCA protein assay (ThermoFisher Scientific) was performed, and the final data reported in % cell uptake/mg of protein.

AR42J cells = experiment: Cell internalization assay in AR42J cells; type: cell-based, rat; conditions: for internalization fraction (of total activity): 2 h incubation
Protocol: At each time point, the media was removed, and cells were washed 3 times with ice-cold PBS. To determine the surface bound fraction, 0.5 mL of 0.1 M citric acid (pH 5) was added to each well and incubated for 5 min. The fraction was collected into a microcentrifuge tube followed by addition of 0.5 mL gentle wash of PBS. To determine the internalized activity, 0.5 mL of 0.2 M NaOH was added to each well and incubated at 37°C for 5 min. This fraction was collected in a separate tube followed by addition of 0.5 mL of PBS wash. The final results were expressed as a percentage of the total activity that was present in each of the two fractions.

A549 cells = experiment: Cell uptake in A549 cells; type: cell-based, human; conditions: A549, 0.5 nM, 2 h, 37°C, per mg protein; Fig. 3A study
Protocol: as §1, §2

MCF-7 cells = experiment: Cell uptake in MCF-7 cells; type: cell-based, human; conditions: MCF-7, 0.5 nM, 2 h, 37°C, per mg protein; Fig. 3A study
Protocol: as §1, §2

in vivo = conditions: mouse, total radioactivity, Biodistribution
Protocol: Subcutaneous tumor xenograft models for AR42J were established by implanting 1×10^6 cells in complete cell media subcutaneously into the right shoulder 3–4 weeks (tumor average diameter of between 5–7 mm) before study.
Mice (n = 4 per group) were anesthetized with 2.5% isoflurane in oxygen and were injected via the retroorbital sinus. After injection, at 4, 24, and 48 h, mice were imaged on a Sofie GNEXT PET/CT small animal scanner (Sofie Biosciences, Dulles, VA, USA). At each time point, 30 min of PET data were acquired followed by a 3-min CT at 80 kVp for anatomical reference. At each time point post imaging, mice were euthanized, and organs were collected, weighed, and counted for associated radioactivity on gamma counter. Radioactivity uptake was calculated as the percent injected dose per gram of tissue (% ID/g).

[1] = Stability of the radioligands in mouse serum; conditions: 37°C, 5 days post incubation, radio-TLC
Protocol: At the specified time points, 40 μL of serum/radioligand mixture was collected and combined with an equal amount of methanol to separate serum proteins, as described in a previously published protocol on metabolite extraction and protein removal [19]. The supernatant was analyzed using both radio TLC and radio HPLC, as described above to determine the percentage intact complex.

[2] = 2 h incubation at 37°C, comparative study Fig. 4A

| tissue uptake at 4 h (in vivo; Blood (μL)) | tissue uptake at 4 h (in vivo; Fat) | tissue uptake at 4 h (in vivo; Small Intestines) | intact complex [1] | Structure (SMILES) | cell uptake (SSTR2 + AR42J cells; [2]) | total activity internalized (AR42J cells) | internalization fraction (of total activity) (AR42J cells) | cell uptake (SSTR2 + AR42J cells; 0.5 nM, 2 h, 37°C, per mg protein, Fig. 3A study) | cell uptake (A549 cells) | cell uptake (MCF-7 cells) |
| --- | --- | --- | --- | --- | --- | --- | --- | --- | --- | --- |
|  |  |  |  | C[C@@H](O)[C@@H]1NC(=O)[C@H](CCCCN)NC(=O)[C@@H](Cc2ccc(NC(N)=O)cc2)NC(=O)[C@H](Cc2ccc(NC(=O)[C@@H]3CC(=O)NC(=O)N3)cc2)NC(=O)[C@H](NC(=O)[C@H](Cc2ccc(Cl)cc2)NC(=O)CN2CCN(CC(=O)O)CCN(CC(=O)O)CCN(CC(=O)O)CC2)CSSC[C@@H](C(=O)N[C@H](Cc2ccc(O)cc2)C(N)=O)NC1=O [[^52Mn]Mn-DOTA-JR11] ({DOTA}-[Phe(4-Cl)][dC][Phe(4-NH2)](Dihydroorotyl(S))[dPhe(4-NHCONH2)]KTC[dY]-NH2; disulfide 2-7 (inferred); C-terminus assumed) | 7.13 ± 0.38 %/ mg | 20.85 ± 0.59% | 20.85 ± 0.59% |  |  |  |
| 0.91 ± 0.05 %ID/g | 0.52 ± 0.19 %ID/g | 1.32 ± 0.46 %ID/g | > 95% | C[C@@H](O)[C@H](NC(=O)[C@@H]1CSSC[C@H](NC(=O)[C@@H](Cc2ccccc2)NC(=O)CN2CCN(CC(=O)O)CCN(CC(=O)O)CCN(CC(=O)O)CC2)C(=O)N[C@@H](Cc2ccc(O)cc2)C(=O)N[C@H](Cc2c[nH]c3ccccc23)C(=O)N[C@@H](CCCCN)C(=O)N[C@@H]([C@@H](C)O)C(=O)N1)C(=O)O [[^52Mn]Mn-DOTATATE] | 11.95 ± 0.71 %/ mg | 53.13 ± 1.83% | 53.13 ± 1.83% | 18.25 ± 1.31 % /mg | 4.07 ± 0.88 % /mg | 2.30 ± 0.20 % /mg |
